Measured values reported in patent US20230310428A1, “EGFR INHIBITOR AND PREPARATION METHOD AND USE THEREOF” (HONGYUN BIOTECH CO., LTD., priority 2020, published 2023).

Experiments:
Assay in all cases: Growth inhibitory activity of compounds on BaF3 cell lines stably transfected with kinase (MTS, 48 h)
Format in all cases: cell-based
[1] = biological target: T1, various mutants of kinase EGFR (BaF3 cell lines stably transfected with kinase) (Homo sapiens, UniProt P00533, C797S/L858R/T790M); settings: BaF3 cells stably transfected with EGFR L858R/T790M/C797S, read-out: IC50, growth inhibition, L858R/T790M/C797S
T1 construct: expressed in transfected cells; host or cells: BaF3
Procedure: (§1) The activity of compounds against various mutants of kinase EGFR was evaluated by their effect of inhibiting growth of BaF3 cell lines stably transfected with kinase. The specific test method was given as follows:
(§2) 1) Culture medium: DMEM (Dulbecco’s modified eagle medium) or RPMI 1640 (containing 10% fetal bovine serum, 100 µg/mL ampicillin, 100 µg/mL streptomycin).
(§3) 2) Reagent: MTS reaction solution (containing 2 mg/mL of MTS [3-(4,5-dimethylthiazol-2-yl)-5-(3-carboxymethoxyphenyl)-2-(4-sulfophenyl)-2H-tetrazoliu m, inner Salt]; 100 µg/mL of PES ([…])).
(§4) 3) Compound test: cells were incubated into a 96-well culture plate, the volume of cytosol was 90 µL, and then 10 µL of the compound at each gradient concentration was added. That is, the highest concentration was 10 µM, which was diluted stepwise by ⅓, and 8 concentration points were set in total; 0.1% DMSO (dimethyl sulfoxide) was contained in the system. The cell plate with uniformly mixed compound was cultured in a cell culture incubator (37° C.; 5% CO2) for 48 h, then 20 µL of MTS reaction solution was added, uniformly mixed and incubated in the cell culture incubator (37° C.; 5% CO2) for 1-4 h. OD values at 490 nm were measured by a microplate reader (VARIOSKAN FLASH, Thermo). Two parallels were set in each group of experiments, with 0.1% (a final concentration) DMSO as a negative control, and a culture medium without cells and compounds as a blank control. The cell growth inhibition rate was calculated by the following formula: […]
(§5) 4) IC50 calculation: The semi-inhibitory concentration of the compounds acting on cells was calculated using GradPad Prism 5 software according to the measured cell growth inhibition rate.

[2] = biological target: T2, various mutants of kinase EGFR (BaF3 cell lines stably transfected with kinase) (Homo sapiens, UniProt P00533, L858R/T790M); settings: BaF3 cells stably transfected with EGFR L858R/T790M, read-out: IC50, growth inhibition, L858R/T790M
T2 construct: expressed in transfected cells; host or cells: BaF3
Procedure: as §1, §2, §3, §4, §5

[3] = biological target: T3, various mutants of kinase EGFR (BaF3 cell lines stably transfected with kinase) (Homo sapiens, UniProt P00533, T790M/C797S, form not given); settings: BaF3 cells stably transfected with EGFR Δ19Del/T790M/C797S, read-out: IC50, growth inhibition, Δ19Del/T790M/C797S
T3 construct: other: BaF3 cells stably transfected with EGFR Δ19Del/T790M/C797S; MTS, 48; other: BaF3 cell line stably transfected with EGFR Δ19Del/T790M/C7
Procedure: as §1, §2, §3, §4, §5

[4] = biological target: T4, various mutants of kinase EGFR (BaF3 cell lines stably transfected with kinase) (Homo sapiens, UniProt P00533, T790M, form not given); settings: BaF3 cells stably transfected with EGFR Δ19Del/T790M, read-out: IC50, growth inhibition, Δ19Del/T790M
T4 construct: other: BaF3 cells stably transfected with EGFR Δ19Del/T790M; MTS, 48 h; other: BaF3 cell line stably transfected with EGFR Δ19Del/T790M; MTS, 48
Procedure: as §1, §2, §3, §4, §5

[5] = biological target: T5, various mutants of kinase EGFR (BaF3 cell lines stably transfected with kinase) (Homo sapiens, UniProt P00533, L858R); settings: BaF3 cells stably transfected with EGFR L858R, read-out: IC50, growth inhibition, L858R
T5 construct: expressed in transfected cells; host or cells: BaF3
Procedure: as §1, §2, §3, §4, §5

[6] = biological target: T6, various mutants of kinase EGFR (BaF3 cell lines stably transfected with kinase) (Homo sapiens, UniProt P00533); settings: BaF3 cells stably transfected with EGFR Δ19Del, read-out: IC50, growth inhibition, Δ19Del
T6 construct: other: BaF3 cells stably transfected with EGFR Δ19Del; MTS, 48 h; other: BaF3 cell line stably transfected with EGFR Δ19Del
Procedure: as §1, §2, §3, §4, §5

T4 sequence (P00533 with tags, fused parts or gaps DEL746-750/T790M, form open): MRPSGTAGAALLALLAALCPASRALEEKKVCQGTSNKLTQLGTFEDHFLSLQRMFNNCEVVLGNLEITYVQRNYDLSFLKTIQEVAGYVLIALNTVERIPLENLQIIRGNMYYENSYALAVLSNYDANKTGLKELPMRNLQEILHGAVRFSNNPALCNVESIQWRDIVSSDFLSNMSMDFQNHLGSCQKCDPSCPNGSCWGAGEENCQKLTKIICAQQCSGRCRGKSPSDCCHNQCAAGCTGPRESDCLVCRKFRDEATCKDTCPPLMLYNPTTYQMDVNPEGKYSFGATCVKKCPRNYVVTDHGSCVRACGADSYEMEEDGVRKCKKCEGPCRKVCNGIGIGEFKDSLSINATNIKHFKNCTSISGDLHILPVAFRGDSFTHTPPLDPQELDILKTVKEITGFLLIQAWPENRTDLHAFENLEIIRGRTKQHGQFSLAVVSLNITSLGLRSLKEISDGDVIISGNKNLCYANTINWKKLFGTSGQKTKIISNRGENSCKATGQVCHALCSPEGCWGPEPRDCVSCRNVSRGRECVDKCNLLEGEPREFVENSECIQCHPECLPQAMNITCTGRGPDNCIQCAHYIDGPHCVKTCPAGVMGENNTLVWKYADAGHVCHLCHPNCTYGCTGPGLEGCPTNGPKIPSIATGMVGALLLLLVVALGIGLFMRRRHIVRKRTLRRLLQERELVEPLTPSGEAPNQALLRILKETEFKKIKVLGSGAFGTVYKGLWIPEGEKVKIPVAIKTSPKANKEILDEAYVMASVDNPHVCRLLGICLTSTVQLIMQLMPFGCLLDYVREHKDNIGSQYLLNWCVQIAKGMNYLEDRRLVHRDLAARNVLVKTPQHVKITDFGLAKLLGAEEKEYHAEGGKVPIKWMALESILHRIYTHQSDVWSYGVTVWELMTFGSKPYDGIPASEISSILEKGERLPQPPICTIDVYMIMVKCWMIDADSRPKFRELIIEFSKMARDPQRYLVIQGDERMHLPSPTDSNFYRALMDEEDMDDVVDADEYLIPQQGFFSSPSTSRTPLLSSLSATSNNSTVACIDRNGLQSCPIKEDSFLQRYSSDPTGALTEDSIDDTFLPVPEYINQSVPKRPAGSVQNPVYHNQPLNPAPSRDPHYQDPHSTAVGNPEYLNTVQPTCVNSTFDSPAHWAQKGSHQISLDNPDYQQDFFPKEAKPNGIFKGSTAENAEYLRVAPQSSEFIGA
T5 sequence (P00533 25-1210 L858R): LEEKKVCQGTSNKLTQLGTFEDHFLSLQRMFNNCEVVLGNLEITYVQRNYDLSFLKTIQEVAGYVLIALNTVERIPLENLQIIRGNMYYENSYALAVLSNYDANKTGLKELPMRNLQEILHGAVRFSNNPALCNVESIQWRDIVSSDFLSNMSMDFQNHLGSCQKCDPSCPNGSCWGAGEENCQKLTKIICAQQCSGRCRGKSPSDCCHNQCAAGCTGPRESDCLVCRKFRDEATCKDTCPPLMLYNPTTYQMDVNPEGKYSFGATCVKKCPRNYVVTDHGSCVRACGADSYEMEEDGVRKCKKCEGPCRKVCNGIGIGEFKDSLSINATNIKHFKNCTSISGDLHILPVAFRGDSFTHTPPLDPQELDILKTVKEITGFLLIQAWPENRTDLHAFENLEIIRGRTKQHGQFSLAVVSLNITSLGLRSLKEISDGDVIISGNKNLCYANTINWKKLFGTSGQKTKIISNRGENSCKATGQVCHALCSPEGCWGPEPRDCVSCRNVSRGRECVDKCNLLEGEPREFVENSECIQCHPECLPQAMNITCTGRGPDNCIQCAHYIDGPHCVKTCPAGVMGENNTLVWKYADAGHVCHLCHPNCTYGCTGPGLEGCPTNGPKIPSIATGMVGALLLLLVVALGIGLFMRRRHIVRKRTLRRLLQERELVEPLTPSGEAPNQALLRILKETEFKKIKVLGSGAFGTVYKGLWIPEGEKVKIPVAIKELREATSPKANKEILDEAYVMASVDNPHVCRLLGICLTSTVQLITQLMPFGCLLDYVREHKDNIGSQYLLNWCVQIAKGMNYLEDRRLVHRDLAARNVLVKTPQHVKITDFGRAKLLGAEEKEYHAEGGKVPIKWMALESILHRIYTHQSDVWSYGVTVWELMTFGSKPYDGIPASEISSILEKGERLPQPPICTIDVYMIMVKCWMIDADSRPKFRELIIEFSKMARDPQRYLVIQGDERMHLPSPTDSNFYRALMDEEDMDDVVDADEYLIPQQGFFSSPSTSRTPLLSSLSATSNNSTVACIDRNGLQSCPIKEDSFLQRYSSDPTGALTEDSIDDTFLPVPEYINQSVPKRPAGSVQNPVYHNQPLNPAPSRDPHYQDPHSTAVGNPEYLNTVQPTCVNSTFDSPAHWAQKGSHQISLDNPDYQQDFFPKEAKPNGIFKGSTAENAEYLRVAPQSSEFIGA
T2 sequence (P00533 25-1210 T790M/L858R): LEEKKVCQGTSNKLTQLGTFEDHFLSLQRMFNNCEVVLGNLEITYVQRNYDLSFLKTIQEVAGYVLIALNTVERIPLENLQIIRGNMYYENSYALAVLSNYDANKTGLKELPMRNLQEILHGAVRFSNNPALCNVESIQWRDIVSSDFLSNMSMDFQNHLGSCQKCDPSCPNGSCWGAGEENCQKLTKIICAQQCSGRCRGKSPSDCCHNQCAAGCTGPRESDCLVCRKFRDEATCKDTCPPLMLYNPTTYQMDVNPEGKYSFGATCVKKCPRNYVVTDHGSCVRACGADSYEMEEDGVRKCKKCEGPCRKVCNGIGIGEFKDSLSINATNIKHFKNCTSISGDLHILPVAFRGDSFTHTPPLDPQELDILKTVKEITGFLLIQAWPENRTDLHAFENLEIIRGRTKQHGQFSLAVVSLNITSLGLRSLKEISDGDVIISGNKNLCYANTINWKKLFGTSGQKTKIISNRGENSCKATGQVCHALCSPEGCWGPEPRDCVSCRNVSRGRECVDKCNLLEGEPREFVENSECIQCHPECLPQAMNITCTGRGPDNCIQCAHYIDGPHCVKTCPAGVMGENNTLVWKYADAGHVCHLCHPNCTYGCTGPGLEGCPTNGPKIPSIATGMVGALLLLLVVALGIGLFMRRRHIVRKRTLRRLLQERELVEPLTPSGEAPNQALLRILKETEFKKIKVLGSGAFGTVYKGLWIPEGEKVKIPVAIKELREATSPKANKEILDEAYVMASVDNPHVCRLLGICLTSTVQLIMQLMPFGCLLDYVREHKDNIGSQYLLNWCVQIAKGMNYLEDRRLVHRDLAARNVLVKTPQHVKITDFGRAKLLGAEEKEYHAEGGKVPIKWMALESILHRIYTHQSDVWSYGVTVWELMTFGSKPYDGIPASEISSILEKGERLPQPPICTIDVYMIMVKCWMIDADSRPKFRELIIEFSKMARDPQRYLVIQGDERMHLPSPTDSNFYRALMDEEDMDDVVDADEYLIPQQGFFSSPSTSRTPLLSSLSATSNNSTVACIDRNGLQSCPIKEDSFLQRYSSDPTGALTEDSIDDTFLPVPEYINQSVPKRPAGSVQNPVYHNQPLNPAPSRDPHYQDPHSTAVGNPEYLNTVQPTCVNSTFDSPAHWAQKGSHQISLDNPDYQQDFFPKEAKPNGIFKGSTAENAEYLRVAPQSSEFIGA
T3 sequence (P00533 with tags, fused parts or gaps DEL746-750/T790M/C797S, form open): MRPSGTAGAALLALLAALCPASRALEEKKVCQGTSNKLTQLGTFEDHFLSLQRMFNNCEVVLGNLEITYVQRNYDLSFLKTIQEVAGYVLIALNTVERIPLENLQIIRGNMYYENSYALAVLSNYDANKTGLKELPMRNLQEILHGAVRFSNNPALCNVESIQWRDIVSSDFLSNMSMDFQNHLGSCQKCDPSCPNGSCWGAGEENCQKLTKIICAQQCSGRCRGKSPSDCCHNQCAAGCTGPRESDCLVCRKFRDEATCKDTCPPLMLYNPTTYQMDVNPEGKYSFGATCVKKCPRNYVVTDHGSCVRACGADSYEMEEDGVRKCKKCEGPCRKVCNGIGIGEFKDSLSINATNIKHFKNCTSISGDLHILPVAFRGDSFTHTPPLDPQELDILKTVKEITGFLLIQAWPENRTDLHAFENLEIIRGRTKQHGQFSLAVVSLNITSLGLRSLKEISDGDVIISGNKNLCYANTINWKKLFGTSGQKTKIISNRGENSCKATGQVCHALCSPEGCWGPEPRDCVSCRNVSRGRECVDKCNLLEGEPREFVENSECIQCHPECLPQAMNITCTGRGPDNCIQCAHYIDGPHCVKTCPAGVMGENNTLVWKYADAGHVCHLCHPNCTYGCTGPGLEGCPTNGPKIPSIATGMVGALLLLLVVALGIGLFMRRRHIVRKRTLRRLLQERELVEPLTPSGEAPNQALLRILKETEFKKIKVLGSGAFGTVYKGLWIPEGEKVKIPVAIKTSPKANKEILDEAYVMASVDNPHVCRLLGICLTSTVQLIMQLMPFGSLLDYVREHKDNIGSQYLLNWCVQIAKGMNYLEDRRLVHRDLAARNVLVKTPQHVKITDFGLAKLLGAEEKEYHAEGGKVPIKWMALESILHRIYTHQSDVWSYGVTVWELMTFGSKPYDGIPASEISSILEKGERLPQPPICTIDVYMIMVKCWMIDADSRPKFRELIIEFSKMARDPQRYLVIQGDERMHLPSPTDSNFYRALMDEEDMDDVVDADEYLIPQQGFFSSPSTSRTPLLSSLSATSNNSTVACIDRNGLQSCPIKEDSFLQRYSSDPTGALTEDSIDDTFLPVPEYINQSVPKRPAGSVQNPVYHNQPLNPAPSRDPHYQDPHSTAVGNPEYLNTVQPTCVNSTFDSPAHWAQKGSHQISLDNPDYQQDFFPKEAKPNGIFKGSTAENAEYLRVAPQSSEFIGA

Structure (SMILES) | IC50 [1] [µM] | IC50 [2] [µM] | IC50 [3] [µM] | IC50 [4] [µM] | IC50 [5] [µM] | IC50 [6] [µM]
COc1ccc(C(=O)N2CCN(C)CC2)cc1Nc1ncc(Br)c(Nc2ccc3nccnc3c2N(C)S(C)(=O)=O)n1 [Compound I-81] | 0.05 to 0.5 | 0.05 to 0.5 | 0.5 to 2.5 | 0.05 to 0.5 | 0.5 to 2.5 | 0.05 to 0.5
CN1CCN(Cc2cc(Nc3ncc(Br)c(Nc4ccc5nccnc5c4N(C)S(C)(=O)=O)n3)cc(C(F)(F)F)c2)CC1 [Compound I-82] | 0.05 to 0.5 | ≤ 0.05 | 0.05 to 0.5 | 0.05 to 0.5 | 0.05 to 0.5 | 0.05 to 0.5
COc1ccc(CN2CCN(C)CC2)cc1Nc1ncc(Br)c(Nc2ccc3nccnc3c2N(C)S(C)(=O)=O)n1 [Compound I-83] | 0.5 to 2.5 | 0.05 to 0.5 | 0.5 to 2.5 | 0.5 to 2.5 | 0.05 to 0.5 | 0.05 to 0.5
CN1CCN(Cc2cccc(Nc3ncc(Br)c(Nc4ccc5nccnc5c4N(C)S(C)(=O)=O)n3)c2)CC1 [Compound I-84] | 0.05 to 0.5 | ≤ 0.05 | 0.05 to 0.5 | 0.05 to 0.5 | ≤ 0.05 | 0.05 to 0.5
COc1ccc(NC(=O)CN(C)C)cc1Nc1ncc(Br)c(Nc2ccc3nccnc3c2N(C)S(C)(=O)=O)n1 [Compound I-85] | 0.05 to 0.5 | 0.05 to 0.5 | 0.05 to 0.5 | 0.05 to 0.5 | 0.05 to 0.5 | 0.05 to 0.5
CN1CCc2cc(F)c(Nc3ncc(Br)c(Nc4ccc5nccnc5c4N(C)S(C)(=O)=O)n3)cc2C1 [Compound I-87] | ≤ 0.05 | 0.05 to 0.5 | ≤ 0.05 | 0.05 to 0.5 | ≤ 0.05 | ≤ 0.05
COc1cc2c(cc1Nc1ncc(Br)c(Nc3ccc4nccnc4c3N(C)S(C)(=O)=O)n1)CN(C)CC2 [Compound I-89] | 0.05 to 0.5 | 0.05 to 0.5 | 0.5 to 2.5 | 0.05 to 0.5 | 0.05 to 0.5 | 0.5 to 2.5
CN1CCc2cc(OC(F)(F)F)c(Nc3ncc(Br)c(Nc4ccc5nccnc5c4N(C)S(C)(=O)=O)n3)cc2C1 [Compound I-90] | 0.05 to 0.5 | 0.5 to 2.5 | 0.5 to 2.5 | 0.5 to 2.5 | 0.5 to 2.5 | 0.05 to 0.5
Cc1cc2c(cc1Nc1ncc(Br)c(Nc3ccc4nccnc4c3N(C)S(C)(=O)=O)n1)CN(C)CC2 [Compound I-92] | ≤ 0.05 | 0.05 to 0.5 | 0.05 to 0.5 | 0.05 to 0.5 | 0.05 to 0.5 | 0.05 to 0.5
CC1CN(C)CCc2ccc(Nc3ncc(Br)c(Nc4ccc5nccnc5c4N(C)S(C)(=O)=O)n3)cc21 (stereo not drawn) [Compound I-93] | ≤ 0.05 | ≤ 0.05 | ≤ 0.05 | ≤ 0.05 | ≤ 0.05 | ≤ 0.05
CCN(c1c(Nc2nc(Nc3cc(C)c(N4CCC(N5CCN(C)CC5)CC4)cc3OC)ncc2Br)ccc2nccnc12)S(C)(=O)=O [Compound I-94] | ≤ 0.05 | ≤ 0.05 | ≤ 0.05 | ≤ 0.05 | ≤ 0.05 | ≤ 0.05
CCc1cc(Nc2ncc(Br)c(Nc3ccc4nccnc4c3N(CC)S(C)(=O)=O)n2)c(OC)cc1N1CCC(N2CCN(C)CC2)CC1 [Compound I-95] | ≤ 0.05 | ≤ 0.05 | ≤ 0.05 | ≤ 0.05 | ≤ 0.05 | ≤ 0.05
CCc1cc(Nc2ncc(Br)c(Nc3ccc4nccnc4c3N(CC)S(C)(=O)=O)n2)c(OC(F)(F)F)cc1N1CCC(N2CCN(C)CC2)CC1 [Compound I-96] | ≤ 0.05 | 0.05 to 0.5 | ≤ 0.05 | 0.05 to 0.5 | 0.05 to 0.5 | 0.05 to 0.5
CCc1cc(Nc2ncc(Br)c(Nc3ccc4nccnc4c3N(CC)S(C)(=O)=O)n2)c(OC)cc1N1CCC(N(C)C)CC1 [Compound I-97] | ≤ 0.05 | ≤ 0.05 | ≤ 0.05 | ≤ 0.05 | ≤ 0.05 | ≤ 0.05
CCc1cc(Nc2ncc(Br)c(Nc3ccc4nccnc4c3N(CC)S(C)(=O)=O)n2)c(OC)cc1N1CCC(N(C)C)C1 (stereo not drawn) [Compound I-98] | ≤ 0.05 | ≤ 0.05 | ≤ 0.05 | ≤ 0.05 | ≤ 0.05 | 0.05 to 0.5
CCS(=O)(=O)N(C)c1c(Nc2nc(Nc3cc(C)c(N4CCC(N5CCN(C)CC5)CC4)cc3OC)ncc2Br)ccc2nccnc12 [Compound I-99] | ≤ 0.05 | ≤ 0.05 | ≤ 0.05 | ≤ 0.05 | ≤ 0.05 | ≤ 0.05
CCc1cc(Nc2ncc(Br)c(Nc3ccc4nccnc4c3N(C)S(=O)(=O)CC)n2)c(OC)cc1N1CCC(N2CCN(C)CC2)CC1 [Compound I-100] | ≤ 0.05 | ≤ 0.05 | ≤ 0.05 | ≤ 0.05 | ≤ 0.05 | ≤ 0.05
CCc1cc(Nc2ncc(Br)c(Nc3ccc4nccnc4c3N(C)S(=O)(=O)CC)n2)c(OC(F)(F)F)cc1N1CCC(N2CCN(C)CC2)CC1 [Compound I-101] | ≤ 0.05 | 0.05 to 0.5 | ≤ 0.05 | ≤ 0.05 | 0.05 to 0.5 | 0.05 to 0.5
CCc1cc(Nc2ncc(Br)c(Nc3ccc4nccnc4c3N(C)S(=O)(=O)CC)n2)c(OC)cc1N1CCC(N(C)C)CC1 [Compound I-102] | ≤ 0.05 | ≤ 0.05 | ≤ 0.05 | ≤ 0.05 | ≤ 0.05 | ≤ 0.05
CCc1cc(Nc2ncc(Br)c(Nc3ccc4nccnc4c3N(C)S(=O)(=O)C3CC3)n2)c(OC)cc1N1CCC(N2CCN(C)CC2)CC1 [Compound I-105] | ≤ 0.05 | ≤ 0.05 | ≤ 0.05 | ≤ 0.05 | ≤ 0.05 | ≤ 0.05
CCc1cc(Nc2ncc(Br)c(Nc3ccc4nccnc4c3N(C)S(=O)(=O)C3CC3)n2)c(OC(F)(F)F)cc1N1CCC(N2CCN(C)CC2)CC1 [Compound I-106] | 0.05 to 0.5 | 0.05 to 0.5 | ≤ 0.05 | ≤ 0.05 | 0.05 to 0.5 | 0.05 to 0.5
CCc1cc(Nc2ncc(Br)c(Nc3ccc4nccnc4c3N(C)S(=O)(=O)C3CC3)n2)c(OC)cc1N1CCC(N(C)C)C1 (stereo not drawn) [Compound I-108] | ≤ 0.05 | ≤ 0.05 | ≤ 0.05 | ≤ 0.05 | 0.05 to 0.5 | 0.05 to 0.5
CCc1cc(Nc2ncc(Cl)c(Nc3ccc4nccnc4c3N(CC)S(C)(=O)=O)n2)c(OC)cc1N1CCC(N2CCN(C)CC2)CC1 [Compound I-110] | ≤ 0.05 | ≤ 0.05 | ≤ 0.05 | ≤ 0.05 | ≤ 0.05 | ≤ 0.05
CCc1cc(Nc2ncc(Cl)c(Nc3ccc4nccnc4c3N(CC)S(C)(=O)=O)n2)c(OC(F)(F)F)cc1N1CCC(N2CCN(C)CC2)CC1 [Compound I-111] | 0.05 to 0.5 | ≤ 0.05 | ≤ 0.05 | 0.05 to 0.5 | 0.05 to 0.5 | 0.05 to 0.5
CCc1cc(Nc2ncc(Cl)c(Nc3ccc4nccnc4c3N(CC)S(C)(=O)=O)n2)c(OC)cc1N1CCC(N(C)C)CC1 [Compound I-112] | ≤ 0.05 | ≤ 0.05 | ≤ 0.05 | ≤ 0.05 | ≤ 0.05 | ≤ 0.05
